# Results taken from patent US8993596B2, “4-(azacycloalkyl)benzene-1,3-diol compounds as tyrosinase inhibitors, process for the preparation thereof and use thereof in human medicine and in cosmetics” (Galderma Research & Development, priority 2008, dated 2015).
# Columns and labels:
# tyrosinase = tyrosinase (Mus musculus (Mouse), UniProt P11344); test: Tyrosinase activity inhibition assay (B16F1 cell lysate); assay type: biochemical, murine; details: lysate of B16F1 cells, L-tyrosine substrate, MBTH, reading at 520 nm after 6 hours at 37° C.; read-out: Tyrosine hydroxylase/ Dopa oxidase IC50
# Description: The activity of the inhibitors is measured using a lysate of B16F1 cells (murine melanoma line). In the presence of the L-tyrosine substrate, the tyrosinase present in these cells catalyses the hydroxylation of L-tyrosine to give L-DOPA and then the oxidation of the L-DOPA to give dopaquinone. In the presence of MBTH (3-methyl-2-benzothiazolinone hydrazone), the dopaquinone is trapped so as to form a pink complex which absorbs at 520 nm.
# The B16F1 cells are cultured in DMEM medium+10% foetal calf serum+10^−9 M α-MSH for 4 days at 37° C. under 7% CO2. They are treated with trypsin, washed in PBS, counted and pelleted. The pellet is taken up at 10^7 cells/ml in lysis buffer (10 mM sodium phosphate, pH 6.8-1% Igepal) and the suspension is treated with ultrasound for 10 seconds. After centrifugation for 30 minutes at 4000 rpm, the supernatant obtained constitutes the cell lysate used as tyrosinase source in the enzymatic assay.
# The assays are carried out in duplicate in 384-well plates in a total volume of 50 μl. […]
# The plate is incubated at 37° C. and a spectrophotometric reading is carried out at 520 nm after 6 hours of incubation. In order to avoid any possible absorption of the products, the system uses corrected absorbance (absorbance at time 6 h—absorbance at time zero). […]
# [1] = tested on: MNT1 human melanoma cells; test: Melanogenesis inhibition assay (14C-thiouracil incorporation); assay type: cell-based; details: MNT-1, 24 h at 37° C., 14C incorporation standardized through 3H incorporation
# Description: (§1) The inhibition of melanogenesis is measured in MNT1 human melanoma cells according to a protocol adapted from Reigner et al., Cell Mol Biol (1999) 45: 969-980. The assay is based on the concomitant incorporation of 2 radiolabelled tracers: ^14C-thiouracil is incorporated into the neosynthesized melanin and reflects melanogenesis, whereas ^3H-leucine is incorporated into the proteins and reflects cell viability and, consequently, the toxicity of the compounds tested.
# (§2) The MNT1 cells are seeded into 96-well plates in the presence of the test compounds and of the radioisotopes. After incubation for 24 h at 37° C., the cells are washed and the amount of the 2 radioisotopes is measured. The test compounds are evaluated in terms of dose-response so as to calculate an IC50 for inhibition of melanogenesis on the basis of the ^14C incorporation which is standardized through the ^3H incorporation. An IC50 for cell toxicity is also calculated on the basis of the ^3H incorporation.
# [2] = tested on: MNT1 human melanoma cells; test: Cell toxicity (3H-leucine incorporation) in the melanogenesis assay; assay type: cell-based; details: MNT-1, 24 h at 37° C.
# Description: as §1, §2
# Sequence of tyrosinase (P11344 19-533): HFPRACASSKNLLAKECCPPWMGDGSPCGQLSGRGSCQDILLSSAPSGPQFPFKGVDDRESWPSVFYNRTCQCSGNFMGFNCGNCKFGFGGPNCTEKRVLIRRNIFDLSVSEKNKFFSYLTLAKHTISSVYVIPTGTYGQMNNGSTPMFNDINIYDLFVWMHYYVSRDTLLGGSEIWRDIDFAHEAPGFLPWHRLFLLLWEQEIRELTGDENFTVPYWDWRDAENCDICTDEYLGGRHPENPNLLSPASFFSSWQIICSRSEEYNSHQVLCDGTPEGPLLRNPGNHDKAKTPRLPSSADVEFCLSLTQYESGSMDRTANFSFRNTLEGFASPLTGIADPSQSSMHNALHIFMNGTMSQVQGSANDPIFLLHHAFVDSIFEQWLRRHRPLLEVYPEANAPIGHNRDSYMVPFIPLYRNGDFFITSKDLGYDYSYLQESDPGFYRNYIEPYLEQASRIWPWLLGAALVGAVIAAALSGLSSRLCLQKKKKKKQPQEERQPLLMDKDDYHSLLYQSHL
IC50 (tyrosinase),IC50 [1],SMILES,IC50 [2]
0.15 µM,0.3 µM,"C[C@H](NC(=O)N1CCC(c2ccc(O)cc2O)CC1)c1ccccc1 [Compound 24, 4-(2,4-dihydroxyphenyl)piperidine-1-carboxylic acid ((S)-1-phenylethyl)amide]",> 999 µM
,15 µM,"CCCCc1ccc(O)cc1O [4-Butylresorcinol (Rucinol), 4-Butylresorcinol, reference compound]",55 µM
0.2 µM,0.7 µM,"O=C([C@@H](O)c1ccccc1)N1CCC(c2ccc(O)cc2O)CC1 [Compound 48, (S)-1-[4-(2,4-dihydroxyphenyl)piperidin-1-yl]-2-hydroxy-2-phenylethanone]",> 999 µM
